# According to US9562085B2, “Antimicrobial peptide” (priority 2013, dated 2017):
# Non-standard residues stand in square brackets, D forms with d. Residues, ends and D or L forms follow the SMILES beside them. *: point of attachment. Myristoyl = CCCCCCCCCCCCCC(=O)*; Decanoyl = CCCCCCCCCC(=O)*; Propionyl = CCC(=O)*
# Tested on: S. aureus JAR
# Type: cell-based
# Conditions: JAR, 2 h
# Description: S. aureus JAR is described in Campoccia et al. (Int. J. Artif. Organs, 2008 September; 31(9):841-7).
# For the in vitro killing assay with P10 variants, S. aureus JAR ([…] CFU/ml) were incubated for 2 hours at 37° C. with various concentrations of the peptides in PBS or in PBS/human plasma (1/1, v/v). […] The LC99.9 is the average value of two independent experiments.
Compound,LC99.9 (μM) (50% plasma) [µM],LC99.9 (μM) (PBS) [µM]
"CCCCCCCCCC(=O)N[C@@H](CC(C)C)C(=O)N[C@@H](C)C(=O)N[C@@H](CCCNC(=N)N)C(=O)N[C@@H](CCC(=O)O)C(=O)N[C@@H](Cc1ccc(O)cc1)C(=O)N[C@@H](CCCCN)C(=O)N[C@@H](CCCCN)C(=O)N[C@H](C(=O)N[C@H](C(=O)N[C@@H](CCC(=O)O)C(=O)N[C@@H](CCCCN)C(=O)N[C@@H](CC(C)C)C(=O)N[C@@H](CCCCN)C(=O)N[C@@H](CCCNC(=N)N)C(=O)N[C@@H](Cc1c[nH]c2ccccc12)C(=O)N[C@@H](CC(C)C)C(=O)N[C@@H](CCCNC(=N)N)C(=O)N[C@@H](CCC(N)=O)C(=O)N[C@H](C(=O)N[C@@H](CC(C)C)C(=O)N[C@@H](CCCNC(=N)N)C(=O)N[C@H](C(=O)N[C@@H](CC(C)C)C(=O)N[C@@H](CCCNC(=N)N)C(N)=O)[C@@H](C)O)C(C)C)C(C)C)[C@@H](C)CC [Peptide 1302-9, jLAREYKKIVEKLKRWLRQVLRTLRB] (Decanoyl-LAREYKKIVEKLKRWLRQVLRTLR-NH2)",>102.4,1.6
"CCCCCCCCCCCCCC(=O)N[C@@H](CC(C)C)C(=O)N[C@@H](C)C(=O)N[C@@H](CCCNC(=N)N)C(=O)N[C@@H](CCC(=O)O)C(=O)N[C@@H](Cc1ccc(O)cc1)C(=O)N[C@@H](CCCCN)C(=O)N[C@@H](CCCCN)C(=O)N[C@H](C(=O)N[C@H](C(=O)N[C@@H](CCC(=O)O)C(=O)N[C@@H](CCCCN)C(=O)N[C@@H](CC(C)C)C(=O)N[C@@H](CCCCN)C(=O)N[C@@H](CCCNC(=N)N)C(=O)N[C@@H](Cc1c[nH]c2ccccc12)C(=O)N[C@@H](CC(C)C)C(=O)N[C@@H](CCCNC(=N)N)C(=O)N[C@@H](CCC(N)=O)C(=O)N[C@H](C(=O)N[C@@H](CC(C)C)C(=O)N[C@@H](CCCNC(=N)N)C(=O)N[C@H](C(=O)N[C@@H](CC(C)C)C(=O)N[C@@H](CCCNC(=N)N)C(N)=O)[C@@H](C)O)C(C)C)C(C)C)[C@@H](C)CC [Peptide 1302-10, uLAREYKKIVEKLKRWLRQVLRTLRB] (Myristoyl-LAREYKKIVEKLKRWLRQVLRTLR-NH2)",102.4,2.0
"CC[C@@H](C)[C@@H](NC(=O)[C@@H](CCCCN)NC(=O)[C@@H](CCCCN)NC(=O)[C@@H](Cc1ccc(O)cc1)NC(=O)[C@@H](CCC(=O)O)NC(=O)[C@@H](CCCNC(=N)N)NC(=O)[C@@H](C)NC(=O)[C@@H](CC(C)C)NC(C)=O)C(=O)N[C@@H](C(=O)N[C@H](CCC(=O)O)C(=O)N[C@H](CCCCN)C(=O)N[C@H](CC(C)C)C(=O)N[C@H](CCCCN)C(=O)N[C@H](CCCNC(=N)N)C(=O)N[C@H](Cc1c[nH]c2ccccc12)C(=O)N[C@H](CC(C)C)C(=O)N[C@H](CCCNC(=N)N)C(=O)N[C@H](CCC(N)=O)C(=O)N[C@@H](C(=O)N[C@H](CC(C)C)C(=O)N[C@H](CCCNC(=N)N)C(=O)N[C@@H](C(=O)N[C@H](CC(C)C)C(=O)N[C@H](CCCNC(=N)N)C(N)=O)[C@H](C)O)C(C)C)C(C)C [Peptide 1313-07, JlareykkiveklkrwlrqvlrtlrB] (Ac-[dL][dA][dR][dE][dY][dK][dK][dI][dV][dE][dK][dL][dK][dR][dW][dL][dR][dQ][dV][dL][dR][dT][dL][dR]-NH2)",25.6,1.6
"Ac-AAREYKKIVEKLKRWLRQVLRTLR-NH2 [Peptide 1302-19, JAAREYKKIVEKLKRWLRQVLRTLRB]",76.8,1.6
"Ac-EYKKIVEKLKRWLRQVLR-NH2 [Peptide 1302-61, JEYKKIVEKLKRWLRQVLRB]",102.4,2.4
"Ac-IAREYKKIVEKLKRWLRQVLRTLR-NH2 [Peptide 1302-17, JIAREYKKIVEKLKRWLRQVLRTLRB]",102.4,1.6
"Ac-KKIVEKLKRWLRQ-NH2 [Peptide 1302-63, JKKIVEKLKRWLRQB]",102.4,>3.2
"Ac-LAHEYKKIVEKLKRWLRQVLRTLR-NH2 [Peptide 1302-24, JLAHEYKKIVEKLKRWLRQVLRTLRB]",102.4,1.6
"Ac-LAKEYKKIVEKLKRWLRQVLRTLR-NH2 [Peptide 1302-23, JLAKEYKKIVEKLKRWLRQVLRTLRB]",102.4,1.6
"Ac-LAREYHKIVEKLKRWLRQVLRTLR-NH2 [Peptide 1302-28, JLAREYHKIVEKLKRWLRQVLRTLRB]",102.4,1.2
"Ac-LAREYKHIVEKLKRWLRQVLRTLR-NH2 [Peptide 1302-30, JLAREYKHIVEKLKRWLRQVLRTLRB]",102.4,3.2
"Ac-LAREYKKIVEKAKRWLRQVLRTLR-NH2 [Peptide 1302-36, JLAREYKKIVEKAKRWLRQVLRTLRB]",76.8,3.2
"Ac-LAREYKKIVEKIKRWLRQVLRTLR-NH2 [Peptide 1302-33, JLAREYKKIVEKIKRWLRQVLRTLRB]",102.4,3.2
"Ac-LAREYKKIVEKLHRWLRQVLRTLR-NH2 [Peptide 1302-37, JLAREYKKIVEKLHRWLRQVLRTLRB]",102.4,3.2
"Ac-LAREYKKIVEKLKHWLRQVLRTLR-NH2 [Peptide 1302-39, JLAREYKKIVEKLKHWLRQVLRTLRB]",102.4,3.2
"Ac-LAREYKKIVEKLKKWLRQVLRTLR-NH2 [Peptide 1302-38, JLAREYKKIVEKLKKWLRQVLRTLRB]",102.4,2.4
"Ac-LAREYKKIVEKLKRFLRQVLRTLR-NH2 [Peptide 1302-40, JLAREYKKIVEKLKRFLRQVLRTLRB]",76.8,1.6
"Ac-LAREYKKIVEKLKRWLHQVLRTLR-NH2 [Peptide 1302-41, JLAREYKKIVEKLKRWLHQVLRTLRB]",102.4,1.6
"Ac-LAREYKKIVEKLKRWLRAVLRTLR-NH2 [Peptide 1302-43, JLAREYKKIVEKLKRWLRAVLRTLRB]",102.4,1.6
"Ac-LAREYKKIVEKLKRWLRNVLRTLR-NH2 [Peptide 1302-42, JLAREYKKIVEKLKRWLRNVLRTLRB]",76.8,1.6
"Ac-LAREYKKIVEKLKRWLRQLLRTLR-NH2 [Peptide 1302-46, JLAREYKKIVEKLKRWLRQLLRTLRB]",102.4,1.6
"Ac-LAREYKKIVEKLKRWLRQVIRTLR-NH2 [Peptide 1302-47, JLAREYKKIVEKLKRWLRQVIRTLRB]",76.8,1.6
"Ac-LAREYKKIVEKLKRWLRQVL-NH2 [Peptide 1302-60, JLAREYKKIVEKLKRWLRQVLB]",102.4,1.6
"Ac-LAREYKKIVEKLKRWLRQVLHTLR-NH2 [Peptide 1302-51, JLAREYKKIVEKLKRWLRQVLHTLRB]",102.4,1.6
"Ac-LAREYKKIVEKLKRWLRQVLKTLR-NH2 [Peptide 1302-50, JLAREYKKIVEKLKRWLRQVLKTLRB]",51.2,0.8
"Ac-LAREYKKIVEKLKRWLRQVLRALR-NH2 [Peptide 1302-54, JLAREYKKIVEKLKRWLRQVLRALRB]",51.2,0.8
"Ac-LAREYKKIVEKLKRWLRQVLRNLR-NH2 [Peptide 1302-53, JLAREYKKIVEKLKRWLRQVLRNLRB]",51.2,1.6

# Same assay, conditions: S. aureus JAR, 2 hours at 37° C. in PBS/human plasma (1/1, v/v); concentration killing 99.9% of the bacteria; average of two experiments
row,Compound,LC99.9 (μM) (50% plasma) [µM]
1,"CCC(=O)N[C@@H](CC(C)C)C(=O)N[C@@H](C)C(=O)N[C@@H](CCCNC(=N)N)C(=O)N[C@@H](CCC(=O)O)C(=O)N[C@@H](Cc1ccc(O)cc1)C(=O)N[C@@H](CCCCN)C(=O)N[C@@H](CCCCN)C(=O)N[C@H](C(=O)N[C@H](C(=O)N[C@@H](CCC(=O)O)C(=O)N[C@@H](CCCCN)C(=O)N[C@@H](CC(C)C)C(=O)N[C@@H](CCCCN)C(=O)N[C@@H](CCCNC(=N)N)C(=O)N[C@@H](Cc1c[nH]c2ccccc12)C(=O)N[C@@H](CC(C)C)C(=O)N[C@@H](CCCNC(=N)N)C(=O)N[C@@H](CCC(N)=O)C(=O)N[C@H](C(=O)N[C@@H](CC(C)C)C(=O)N[C@@H](CCCNC(=N)N)C(=O)N[C@H](C(=O)N[C@@H](CC(C)C)C(=O)N[C@@H](CCCNC(=N)N)C(N)=O)[C@@H](C)O)C(C)C)C(C)C)[C@@H](C)CC [Peptide 1302-11, ULAREYKKIVEKLKRWLRQVLRTLRB] (Propionyl-LAREYKKIVEKLKRWLRQVLRTLR-NH2)",102.4
2,"Ac-LAREYKKIVEKLKRWLRQVARTLR-NH2 [Peptide 1302-49, JLAREYKKIVEKLKRWLRQVARTLRB]",51.2

# Same assay, conditions: S. aureus JAR, 2 hours at 37° C. in PBS; concentration killing 99.9% of the bacteria; average of two experiments
row,Compound,LC99.9 (μM) (PBS) [µM]
1,"CCC(=O)N[C@@H](CC(C)C)C(=O)N[C@@H](C)C(=O)N[C@@H](CCCNC(=N)N)C(=O)N[C@@H](CCC(=O)O)C(=O)N[C@@H](Cc1ccc(O)cc1)C(=O)N[C@@H](CCCCN)C(=O)N[C@@H](CCCCN)C(=O)N[C@H](C(=O)N[C@H](C(=O)N[C@@H](CCC(=O)O)C(=O)N[C@@H](CCCCN)C(=O)N[C@@H](CC(C)C)C(=O)N[C@@H](CCCCN)C(=O)N[C@@H](CCCNC(=N)N)C(=O)N[C@@H](Cc1c[nH]c2ccccc12)C(=O)N[C@@H](CC(C)C)C(=O)N[C@@H](CCCNC(=N)N)C(=O)N[C@@H](CCC(N)=O)C(=O)N[C@H](C(=O)N[C@@H](CC(C)C)C(=O)N[C@@H](CCCNC(=N)N)C(=O)N[C@H](C(=O)N[C@@H](CC(C)C)C(=O)N[C@@H](CCCNC(=N)N)C(N)=O)[C@@H](C)O)C(C)C)C(C)C)[C@@H](C)CC [Peptide 1302-11, ULAREYKKIVEKLKRWLRQVLRTLRB] (Propionyl-LAREYKKIVEKLKRWLRQVLRTLR-NH2)",1.6
2,"Ac-LAREYKKIVEKLKRWLRQVARTLR-NH2 [Peptide 1302-49, JLAREYKKIVEKLKRWLRQVARTLRB]",1.6

# Same assay, conditions: statements referring to Tables 2-6
row,Compound,"antimicrobial activity, in words"
1,"CC[C@@H](C)[C@@H](NC(=O)[C@@H](CCCCN)NC(=O)[C@@H](CCCCN)NC(=O)[C@@H](Cc1ccc(O)cc1)NC(=O)[C@@H](CCC(=O)O)NC(=O)[C@@H](CCCNC(=N)N)NC(=O)[C@@H](C)NC(=O)[C@@H](CC(C)C)NC(C)=O)C(=O)N[C@@H](C(=O)N[C@H](CCC(=O)O)C(=O)N[C@H](CCCCN)C(=O)N[C@H](CC(C)C)C(=O)N[C@H](CCCCN)C(=O)N[C@H](CCCNC(=N)N)C(=O)N[C@H](Cc1c[nH]c2ccccc12)C(=O)N[C@H](CC(C)C)C(=O)N[C@H](CCCNC(=N)N)C(=O)N[C@H](CCC(N)=O)C(=O)N[C@@H](C(=O)N[C@H](CC(C)C)C(=O)N[C@H](CCCNC(=N)N)C(=O)N[C@@H](C(=O)N[C@H](CC(C)C)C(=O)N[C@H](CCCNC(=N)N)C(N)=O)[C@H](C)O)C(C)C)C(C)C [Peptide 1313-07, JlareykkiveklkrwlrqvlrtlrB] (Ac-[dL][dA][dR][dE][dY][dK][dK][dI][dV][dE][dK][dL][dK][dR][dW][dL][dR][dQ][dV][dL][dR][dT][dL][dR]-NH2)",possesses antimicrobial activity
